Results: the supplement of paper PMC4862054

Legend:
Conditions in all cases: incubation time: 72 h
MDA-MB-453 [1] = assay: normalised viability (% of control), CellTiter-Blue; higher = more viable cells (about 100 = DMSO control)
Experimental: (§1)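 DSRT, CellTiter-Blue viability, 72 h incubation. Signal is normalised to DMSO and benzethonium chloride controls. Value is the normalised response at dose 7.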

HDQ-P1 [2] = assay: as above
Experimental: as §1

CAL-51 [3] = assay: as above
Experimental: as §1

CAL-148 [4] = assay: as above
Experimental: as §1

DU-4475 [5] = assay: as above
Experimental: as §1

CAL-85-1 [6] = assay: as above
Experimental: as §1

HCC1599 [7] = assay: drug sensitivity score (DSS), CellTiter-Blue viability (DSS (AUC-based score)); higher = stronger viability inhibition; extreme values may be limits of the assay
Experimental: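 DSRT with the CellTiter-Blue (resazurin reduction) viability readout, fluorescence 560/590 nm, 72 h incubation. Plates were normalised to DMSO and benzethonium chloride controls. DSS is computed from the area under the fitted dose-response curve (5 or 9 concentrations).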

HCC1143 = assay: normalised viability (% of control), CellTiter-Blue; higher = more viable cells (about 100 = DMSO control)
Experimental: (§2)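 DSRT, CellTiter-Blue viability, 72 h incubation. Signal is normalised to DMSO and benzethonium chloride controls. Value is the normalised response at dose 3.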

MDA-MB-231 = assay: as above
Experimental: as §2

BT-474 = assay: as above
Experimental: as §2

HCC1599 [8] = assay: as above
Experimental: as §2

MDA-MB-453 [9] = assay: as above; remark: listed apart in the source
Experimental: as §2

HDQ-P1 [10] = assay: as above; remark: listed apart in the source
Experimental: as §2

MDA-MB-468 [11] = assay: as above
Experimental: as §2

Hs578T = assay: as above
Experimental: as §2

SK-BR-3 = assay: as above
Experimental: as §2

MDA-MB-436 = assay: as above
Experimental: as §2

CAL-51 [12] = assay: as above; remark: listed apart in the source
Experimental: as §2

HCC1937 = assay: as above
Experimental: as §2

MFM-223 = assay: as above
Experimental: as §2

CAL-148 [13] = assay: as above; remark: listed apart in the source
Experimental: as §2

BT-549 = assay: as above
Experimental: as §2

CAL-120 = assay: as above
Experimental: as §2

DU-4475 [14] = assay: as above; remark: listed apart in the source
Experimental: as §2

CAL-85-1 [15] = assay: as above; remark: listed apart in the source
Experimental: as §2

MDA-MB-468 [16] = assay: drug sensitivity score (DSS), CellTox Green (DSS (AUC-based score)); higher = stronger drug effect (viability inhibition or cytotoxicity); extreme values may be limits of the assay
Outline: (§3)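 After 72 h of incubation in 384-well plates with compound at 5 concentrations (10-fold steps, 10,000-fold range set per compound), breast cancer cell lines seeded in 20 µl suspension were read first for CellTox Green fluorescence at 485/520 nm. CellTiter-Glo luminescence was measured next, after 10 min at room temperature. Normalisation on each plate used 0.1 % DMSO and a positive kill control, and the drug sensitivity score was computed from the area under the fitted dose-response curve.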

CAL-85-1 [17] = assay: as above
Outline: as §3

Structure (SMILES): Cn1cncc1[C@@](N)(c1ccc(Cl)cc1)c1ccc2c(c1)c(-c1cccc(Cl)c1)cc(=O)n2C [Tipifarnib]
- normalised viability (MDA-MB-453 [1]; 1000 nM): 49.1%
- normalised viability (HDQ-P1 [2]; 1000 nM): 66.6%
- normalised viability (CAL-51 [3]; 1000 nM): 59.9%
- normalised viability (CAL-148 [4]; 1000 nM): 42.9%
- normalised viability (DU-4475 [5]; 1000 nM): 40.6%
- normalised viability (CAL-85-1 [6]; 1000 nM): 62.8%
- drug sensitivity score (HCC1599 [7]): 9.57
- normalised viability (HCC1143; 100 nM): 61.6%
- normalised viability (MDA-MB-231; 100 nM): 71.8%
- normalised viability (BT-474; 100 nM): 102%
- normalised viability (HCC1599 [8]; 100 nM): 72.7%
- normalised viability (MDA-MB-453 [9]; 10 nM): 93%
- normalised viability (HDQ-P1 [10]; 10 nM): 89.7%
- normalised viability (MDA-MB-468 [11]; 100 nM): 96.7%
- normalised viability (Hs578T; 100 nM): 70.1%
- normalised viability (SK-BR-3; 100 nM): 57.8%
- normalised viability (MDA-MB-436; 100 nM): 87.9%
- normalised viability (CAL-51 [12]; 10 nM): 99.9%
- normalised viability (HCC1937; 100 nM): 64.9%
- normalised viability (MFM-223; 100 nM): 70.3%
- normalised viability (CAL-148 [13]; 10 nM): 83.2%
- normalised viability (BT-549; 100 nM): 95.3%
- normalised viability (CAL-120; 100 nM): 57%
- normalised viability (DU-4475 [14]; 10 nM): 92.8%
- normalised viability (CAL-85-1 [15]; 10 nM): 85.3%
- drug sensitivity score (MDA-MB-468 [16]): 0
- drug sensitivity score (CAL-85-1 [17]): 0.98

Structure (SMILES): CCCCCCCCc1ccc(CCC(N)(CO)CO)cc1 [Fingolimod]
- normalised viability (MDA-MB-453 [1]; 1000 nM): 103%
- normalised viability (HDQ-P1 [2]; 1000 nM): 110%
- normalised viability (CAL-51 [3]; 1000 nM): 112%
- normalised viability (CAL-148 [4]; 1000 nM): 96.3%
- normalised viability (DU-4475 [5]; 1000 nM): 109%
- normalised viability (CAL-85-1 [6]; 1000 nM): 93.4%
- drug sensitivity score (HCC1599 [7]): 0
- normalised viability (HCC1143; 100 nM): 106%
- normalised viability (MDA-MB-231; 100 nM): 89.3%
- normalised viability (BT-474; 100 nM): 119%
- normalised viability (HCC1599 [8]; 100 nM): 93.9%
- normalised viability (MDA-MB-453 [9]; 10 nM): 108%
- normalised viability (HDQ-P1 [10]; 10 nM): 119%
- normalised viability (MDA-MB-468 [11]; 100 nM): 101%
- normalised viability (Hs578T; 100 nM): 97.1%
- normalised viability (SK-BR-3; 100 nM): 85.8%
- normalised viability (MDA-MB-436; 100 nM): 101%
- normalised viability (CAL-51 [12]; 10 nM): 117%
- normalised viability (HCC1937; 100 nM): 99%
- normalised viability (MFM-223; 100 nM): 98.6%
- normalised viability (CAL-148 [13]; 10 nM): 87.3%
- normalised viability (BT-549; 100 nM): 117%
- normalised viability (CAL-120; 100 nM): 90.7%
- normalised viability (DU-4475 [14]; 10 nM): 113%
- normalised viability (CAL-85-1 [15]; 10 nM): 103%
- drug sensitivity score (MDA-MB-468 [16]): 6.79
- drug sensitivity score (CAL-85-1 [17]): 7.94

Structure (SMILES): COc1ccccc1S(=O)(=O)Nc1ccc2c(c1)CN(C)C(=O)N2 [PFI-1]
- drug sensitivity score (MDA-MB-468 [16]): 0
- drug sensitivity score (CAL-85-1 [17]): 0.65

Structure (SMILES): CN1CCN(CCOc2cc(OC3CCOCC3)c3c(Nc4c(Cl)ccc5c4OCO5)ncnc3c2)CC1 [Saracatinib]
- normalised viability (MDA-MB-453 [1]; 1000 nM): 86.5%
- normalised viability (HDQ-P1 [2]; 1000 nM): 40.6%
- normalised viability (CAL-51 [3]; 1000 nM): 60.9%
- normalised viability (CAL-148 [4]; 1000 nM): 83.9%
- normalised viability (DU-4475 [5]; 1000 nM): 102%
- normalised viability (CAL-85-1 [6]; 1000 nM): 51.4%
- drug sensitivity score (HCC1599 [7]): 0.195
- normalised viability (HCC1143; 100 nM): 84.3%
- normalised viability (MDA-MB-231; 100 nM): 76.5%
- normalised viability (BT-474; 100 nM): 105%
- normalised viability (HCC1599 [8]; 100 nM): 108%
- normalised viability (MDA-MB-453 [9]; 10 nM): 105%
- normalised viability (HDQ-P1 [10]; 10 nM): 104%
- normalised viability (MDA-MB-468 [11]; 100 nM): 104%
- normalised viability (Hs578T; 100 nM): 95.7%
- normalised viability (SK-BR-3; 100 nM): 85.3%
- normalised viability (MDA-MB-436; 100 nM): 109%
- normalised viability (CAL-51 [12]; 10 nM): 106%
- normalised viability (HCC1937; 100 nM): 96.2%
- normalised viability (MFM-223; 100 nM): 99.6%
- normalised viability (CAL-148 [13]; 10 nM): 80.7%
- normalised viability (BT-549; 100 nM): 112%
- normalised viability (CAL-120; 100 nM): 87.7%
- normalised viability (DU-4475 [14]; 10 nM): 105%
- normalised viability (CAL-85-1 [15]; 10 nM): 93.9%
- drug sensitivity score (MDA-MB-468 [16]): 0
- drug sensitivity score (CAL-85-1 [17]): 6.93

Structure (SMILES): COc1ccc(-c2ccc3c(N4CCOC[C@@H]4C)nc(N4CCOC[C@@H]4C)nc3n2)cc1CO [AZD8055]
- normalised viability (MDA-MB-453 [1]; 1000 nM): 14.4%
- normalised viability (HDQ-P1 [2]; 1000 nM): 27.2%
- normalised viability (CAL-51 [3]; 1000 nM): 10.8%
- normalised viability (CAL-148 [4]; 1000 nM): 5.6%
- normalised viability (DU-4475 [5]; 1000 nM): 15.2%
- normalised viability (CAL-85-1 [6]; 1000 nM): 23.8%
- drug sensitivity score (HCC1599 [7]): 14.5
- normalised viability (HCC1143; 100 nM): 55.8%
- normalised viability (MDA-MB-231; 100 nM): 50%
- normalised viability (BT-474; 100 nM): 52.2%
- normalised viability (HCC1599 [8]; 100 nM): 65.9%
- normalised viability (MDA-MB-453 [9]; 10 nM): 80.3%
- normalised viability (HDQ-P1 [10]; 10 nM): 76.8%
- normalised viability (MDA-MB-468 [11]; 100 nM): 70%
- normalised viability (Hs578T; 100 nM): 33.7%
- normalised viability (SK-BR-3; 100 nM): 23.6%
- normalised viability (MDA-MB-436; 100 nM): 70.7%
- normalised viability (CAL-51 [12]; 10 nM): 67.4%
- normalised viability (HCC1937; 100 nM): 42.6%
- normalised viability (MFM-223; 100 nM): 26.6%
- normalised viability (CAL-148 [13]; 10 nM): 80.9%
- normalised viability (BT-549; 100 nM): 44.3%
- normalised viability (CAL-120; 100 nM): 32.5%
- normalised viability (DU-4475 [14]; 10 nM): 102%
- normalised viability (CAL-85-1 [15]; 10 nM): 79.8%
- drug sensitivity score (MDA-MB-468 [16]): 2.01
- drug sensitivity score (CAL-85-1 [17]): 0.628

Structure (SMILES): Cn1c(=O)n(-c2ccc(C(C)(C)C#N)cc2)c2c3cc(-c4cnc5ccccc5c4)ccc3ncc21 [NVP-BEZ235]
- normalised viability (MDA-MB-453 [1]; 100 nM): 16.8%
- normalised viability (HDQ-P1 [2]; 100 nM): 38.3%
- normalised viability (CAL-51 [3]; 100 nM): 22.3%
- normalised viability (CAL-148 [4]; 100 nM): 16.1%
- normalised viability (DU-4475 [5]; 100 nM): 37.2%
- normalised viability (CAL-85-1 [6]; 100 nM): 31.4%
- drug sensitivity score (HCC1599 [7]): 8.13
- normalised viability (HCC1143; 10 nM): 70.9%
- normalised viability (MDA-MB-231; 10 nM): 72.4%
- normalised viability (BT-474; 10 nM): 91.6%
- normalised viability (HCC1599 [8]; 10 nM): 84.7%
- normalised viability (MDA-MB-453 [9]; 1 nM): 96.5%
- normalised viability (HDQ-P1 [10]; 1 nM): 102%
- normalised viability (MDA-MB-468 [11]; 10 nM): 86.6%
- normalised viability (Hs578T; 10 nM): 56.7%
- normalised viability (SK-BR-3; 10 nM): 88.4%
- normalised viability (MDA-MB-436; 10 nM): 105%
- normalised viability (CAL-51 [12]; 1 nM): 106%
- normalised viability (HCC1937; 10 nM): 59.9%
- normalised viability (MFM-223; 10 nM): 51.9%
- normalised viability (CAL-148 [13]; 1 nM): 108%
- normalised viability (BT-549; 10 nM): 68.2%
- normalised viability (CAL-120; 10 nM): 57.4%
- normalised viability (DU-4475 [14]; 1 nM): 101%
- normalised viability (CAL-85-1 [15]; 1 nM): 110%

Structure (SMILES): Nc1ncnc2c1c(COc1cccc(Cl)c1)nn2C1CCOCC1
- drug sensitivity score (MDA-MB-468 [16]): 0
- drug sensitivity score (CAL-85-1 [17]): 0
